Tests used:
nerve cell = conditions: cited from earlier work
[1] = molecular target: α7 nicotinic acetylcholine receptor (Homo sapiens, UniProt P36544); conditions: α7 nicotinic acetylcholine receptor expressed in glutamatergic presynaptic cell as target; cited from earlier work
hippocampus nerve cells = conditions: cited from earlier work
[2] = tested on: amyloid β peptide or scopolamine-treated rat; conditions: cited from earlier work
[3] = tested on: normal human skin fibroblast; assay: Immunocytological measurement of elastin fiber in fibroblasts with or without SNP; assay type: cell-based; conditions: DCP-LA 100 nM, FIG. 1
Method: (§1) Normal human fibroblast was purchased from Lonza (Verviers, Belgium). The cells were cultured in FGM™-2 BulletKit™ (Lonza) at 5% CO2 and 95% air under wet atmosphere at 37° C.
In the presence or absence of DCP-LA (100 nM), normal human skin fibroblasts were treated with sodium nitroprusside (SNP) (1 mM). Then, the cells were fixed with methanol at −20° C. for 30 min, and blocked with 2% (w/v) bovine serum albumin-containing phosphate buffered saline (PBS) at room temperature. The cells were reacted with an anti-elastin antibody (1:100) (Millipore, Temecula, Calif., USA) at 4° C. overnight, and then reacted with an Alexa488-conjugated goat anti-mouse IgG antibody (Molecular Probes, Eugene, Oreg., USA) at room temperature for 1 hr. After staining with 4′,6-diamidino-2-phenylindole (DAPI), the fluorescence-labeled cells were visualized with a confocal scanning laser microscope (Axiovert/LSM510; Carl Zeiss, Oberkochen, Germany). The fluorescence signal intensity of the elastin fiber was analyzed using ImageJ (Bethesda, Md., USA). The intensity of the elastin fiber was standardized by the intensity of DAPI.

PKC-ε = molecular target: T1, PKC-ε (Homo sapiens, UniProt Q02156); conditions: cited from earlier work
T1 sequence (Q02156 1-737): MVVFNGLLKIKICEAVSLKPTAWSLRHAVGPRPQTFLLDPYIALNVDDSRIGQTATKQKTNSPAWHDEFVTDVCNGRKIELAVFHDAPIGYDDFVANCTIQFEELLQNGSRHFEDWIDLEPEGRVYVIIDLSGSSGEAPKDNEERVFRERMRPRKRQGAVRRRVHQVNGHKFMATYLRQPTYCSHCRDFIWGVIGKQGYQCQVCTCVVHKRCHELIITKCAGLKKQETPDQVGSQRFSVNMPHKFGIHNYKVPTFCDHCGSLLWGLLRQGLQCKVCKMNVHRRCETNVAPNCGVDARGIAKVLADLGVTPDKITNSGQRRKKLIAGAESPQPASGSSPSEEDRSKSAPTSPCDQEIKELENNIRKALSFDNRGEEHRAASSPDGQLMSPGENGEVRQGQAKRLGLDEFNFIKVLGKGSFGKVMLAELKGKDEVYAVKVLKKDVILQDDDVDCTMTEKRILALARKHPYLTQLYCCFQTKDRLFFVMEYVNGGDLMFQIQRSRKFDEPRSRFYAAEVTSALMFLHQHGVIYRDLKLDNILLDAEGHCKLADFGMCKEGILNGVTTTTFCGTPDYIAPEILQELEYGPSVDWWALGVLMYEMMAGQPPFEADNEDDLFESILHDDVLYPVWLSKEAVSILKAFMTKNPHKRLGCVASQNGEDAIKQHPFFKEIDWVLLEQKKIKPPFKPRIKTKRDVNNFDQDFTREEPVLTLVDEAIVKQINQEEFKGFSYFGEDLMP

HR-1 hairless mice = assay: Immunohistological measurement of elastin fiber in UV-irradiated mouse back skin; assay type: in vivo; conditions: DCP-LA 1 mg/ml in PEG applied to back skin once per day, UV for 2 weeks, FIG. 2
Method: Male HR-1 hairless mice (7- to 8-week-old) were purchased from Japan SLC. Inc. (Shizuoka, Japan). The mice were reared in a chamber at controlled temperature in a cycle of 12 hr light conditions/12 hr dark conditions.
The mice were transferred to a special cage provided with a UV light on the roof and reared therein. UV light was continuously irradiated on the back skin at a distance of 12 cm for the whole 2 weeks.
During UV irradiation, DCP-LA (1 mg/ml) diluted with polyethylene glycol (PEG) was applied to the skin of the back of the mouse once per day.
The mice were sacrificed, a skin block was mounted on OTC (optimal cutting temperature compound), and cut out in about 10 μm thickness by a cryostat. A section was blocked with 5% (v/v) goat serum in PBS-Triton X-100 for 1 hr. Then, the section was incubated with an anti-elastin mouse monoclonal antibody (1:2000) (Millipore), which is the primary antibody, at 4° C. overnight, and then incubated with a goat anti-mouse IgG antibody (1:500) (Invitrogen, Carlsbad, Calif., USA) which is the secondary antibody, for 1 hr at room temperature. After staining with DAPI, the section was visualized with a confocal scanning laser microscope (Axiovert/LSM510; Carl Zeiss). The fluorescence signal intensity of the elastin fiber was quantified by NIH image. The intensity of the elastin fiber was standardized by the intensity of DAPI.

[4] = tested on: senescence accelerated mouse; conditions: cited from earlier work
fibrin-5 = assay: Western blotting of fibrin-5 secreted into culture medium; assay type: cell-based, human; conditions: DCP-LA 100 nM, 0-24 hr, FIG. 3
Method: as §1
The cultured normal human skin fibroblast was treated with DCP-LA (100 nM) for 0-24 hr, and the culture medium was recovered. After precipitation with 5% (w/v) trichloroacetic acid, protein was separated by sodium dodecyl sulfate-polyacrylamide electrophoresis (SDS-PAGE) using TGX gel (BioRad, Hercules, Calif., USA) and transferred on a polyvinylidene difluoride membrane. The blotting membrane was blocked with TBS-T [150 mM NaCl, 0.1% (v/v) Tween20 and 20 mM Tris, pH 7.5] containing 5% (w/v) BSA, and reacted with anti-fibrin-5 antibody (Sigma, St Louis, Mo., USA). After washing, the membrane was reacted with horseradish peroxidase-conjugated goat anti-rabbit IgG antibody. The immune reactivity was detected by ECL kit (GE Healthcare, Piscataway, N.J., USA), and visualized using a chemiluminescence detection system (GE Healthcare). The protein concentration of each sample was measured using a BCA protein assay kit (Thermo Fisher Scientific, Waltham, Mass., USA).

Chain of α7 nicotinic acetylcholine receptor (P36544 23-502): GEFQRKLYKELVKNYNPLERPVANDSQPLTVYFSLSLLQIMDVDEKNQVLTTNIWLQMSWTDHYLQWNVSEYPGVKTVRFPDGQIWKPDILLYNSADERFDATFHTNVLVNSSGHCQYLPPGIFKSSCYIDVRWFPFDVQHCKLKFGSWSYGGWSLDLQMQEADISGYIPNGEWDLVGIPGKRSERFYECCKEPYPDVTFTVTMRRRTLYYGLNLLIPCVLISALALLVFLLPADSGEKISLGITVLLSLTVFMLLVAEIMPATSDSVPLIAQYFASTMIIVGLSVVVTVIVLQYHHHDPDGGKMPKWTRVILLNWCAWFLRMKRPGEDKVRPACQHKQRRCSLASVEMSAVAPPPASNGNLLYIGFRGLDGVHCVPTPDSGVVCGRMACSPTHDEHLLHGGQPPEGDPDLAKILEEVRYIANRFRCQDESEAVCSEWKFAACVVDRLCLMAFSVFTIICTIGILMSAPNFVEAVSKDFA

## CCCCCC1CC1CC1CC1CCCCCCCC(=O)O (stereo not shown) [DCP-LA, 8-[2-(2-Pentyl-cyclopropylmethyl)-cyclopropyl]-octanoic acid]
Nerve cell
  nerve cell death induced by oxidative stress: suppress nerve cell death induced by oxidative stress
[1]
  hippocampal synaptic transmission: promotes hippocampal synaptic transmission
Hippocampus nerve cells
  release of γ aminobutyric acid: increases release of γ aminobutyric acid from hippocampus nerve cells
[2]
  cognitive dysfunction: improves cognitive dysfunction of amyloid β peptide or scopolamine-treated rat
[3]; SNP 1 mM for 12 hr
  regeneration against elastin degeneration induced by NO stress (relative density of elastin fiber relative to DAPI): promote regeneration against elastin degeneration induced by NO stress
[3]; untreated with SNP
  elastin synthesis (relative density of elastin fiber relative to the DAPI density): promote elastin synthesis
PKC-ε
  PKC-ε activation: activates PKC-ε selectively and directly
HR-1 hairless mice
  protection against elastin disorder caused by UV irradiation (relative density of elastin fiber relative to DAPI): protecting action against elastin disorder (elastin deterioration) caused by UV irradiation
[4]
  cognitive dysfunction: improves cognitive dysfunction of senescence accelerated mouse
fibrin-5
  secretion amount of fibrin-5: increased the secretion amount of fibrin-5

From US9987208B2, “Elastin synthesis/regeneration promoting agent” (NISHIZAKI BIOINFORMATION RESEARCH INSTITUTE, priority 2013, dated 2018)
